Laboratory results from patent US20240390452A1, “Protective Agent Against Endothelial Dysfunction” (THE TRUSTEES OF THE UNIVERSITY OF PENNSYLVANIA, priority 2023, published 2024).
Entries after “also recorded” stand apart in the source; their conditions may differ.

Key:
[1] = tested on: lung oxidative injury; details: earlier work; cited from earlier work
[2] = tested on: Human Pulmonary Microvascular Endothelial Cells (HPMVEC); format: cell-based; details: HPMVEC pre-treated 3 hrs with PIP-2 in liposomes (10 nM), then COVID-19 serum 1 hr; CellROX fluorescence
[3] = tested on: ICAM-1; test: ICAM-1 immunostaining in HPMVEC exposed to COVID-19 serum; format: cell-based, human; details: HPMVEC pre-treated 3 hrs with PIP-2 in liposomes (10 nM), then COVID-19 serum; anti-ICAM immunostaining
Method: Primary cultures of Human Pulmonary Microvascular Endothelial Cells (HPMVEC) were grown in a T-25 culture dish and routinely maintained in Dulbecco's Modified Eagle Medium (DMEM) supplemented with 10% fetal bovine serum (FBS), 1× glutamax, 1× antibiotics, and endothelial cell growth supplement (Millipore Upstate). Cells were grown and maintained in 5% CO2 at 37° C. Once grown to the appropriate density, cells were then split and grown on coverslips in 35 mm petri dishes. Cells were then treated either with medium supplemented with 10% serum from healthy individuals or COVID-19 patients at admission to ICU and then monitored for ROS production and ICAM-1 induction as described below.
HPMVEC were incubated for one hour in the incubator at 37° C. and 5% CO2 with medium supplemented with 10% serum either from a healthy individual or from patients suffering from COVID-19. The serum replaced the FBS which was otherwise used as a supplement in DMEM. Post incubation, cells were either fixed for ICAM-1 immuno-staining or the cells were stained for ROS measurement as described below. Serum from one healthy individual and seven COVID-19 patients were used in this study.
HPMVEC were incubated for three hours in the incubator at 37° C. and 5% CO2 with medium supplemented with either liposomes alone or PIP-2 in liposomes (concentration 10 nM) without 10% FBS. […]

[4] = tested on: NLRP3 subunit of the inflammasome; test: NLRP3 immunostaining in cells exposed to COVID-19 serum; format: cell-based, human; details: cells pre-treated 3 hrs with PIP-2, then COVID-19 serum 1 hr; anti-NLRP3 immunostaining
Method: (§1) Cells were pre-treated for 3 hrs with PIP-2 and then with COVID-19 serum/normal serum for an hour. Cells were then fixed and NLRP3/caspase-1 were monitored by immunostaining with anti-NLRP3 or activated caspase-1 antibody. FIG. 4A: NLRP3 immunostaining. FIG. 4B: Quantification of the fluorescent signal using Metamorph imaging software *p<0.001. FIG. 4C: Caspase-1 immunostaining. FIG. 4D: Quantification of the fluorescent signal using Metamorph imaging software *p<0.05.
(§2) HPMVEC were incubated for three hours in the incubator at 37° C. and 5% CO2 with medium supplemented with either liposomes alone or PIP-2 in liposomes (concentration 10 nM) without 10% FBS. After 3 hours of incubation, cells were either treated with serum of a healthy individual or COVID-19 patients at admission to ICU along with either liposomes alone or PIP-2 in liposomes together for one hour and three hours for ROS measurement and ICAM-1 induction respectively.

[5] = tested on: caspase-1; test: Activated caspase-1 immunostaining in cells exposed to COVID-19 serum; format: cell-based, human; details: cells pre-treated 3 hrs with PIP-2, then COVID-19 serum 1 hr; activated caspase-1 antibody immunostaining
Method: as §1, §2

[6] = molecular target: T1, phospholipase A2 (PLA2) activity of peroxiredoxin 6 (Prdx6) (Homo sapiens, UniProt P30041); details: earlier work / WO 2020/037146 A1; cited from earlier work
T1 sequence (P30041 1-224): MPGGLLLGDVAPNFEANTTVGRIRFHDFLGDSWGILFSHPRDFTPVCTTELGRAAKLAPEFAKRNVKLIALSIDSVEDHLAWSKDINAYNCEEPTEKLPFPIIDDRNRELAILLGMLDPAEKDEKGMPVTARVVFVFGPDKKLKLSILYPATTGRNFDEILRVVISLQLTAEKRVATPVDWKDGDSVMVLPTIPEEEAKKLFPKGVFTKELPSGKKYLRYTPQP

Molecule	protection against lung oxidative injury [1]	ROS production (endothelial activation) post COVID-19 serum exposure [2]	ICAM-1 expression (endothelial inflammatory phenotype) [3]	NLRP3 expression [4]	caspase 1 expression [5]	inhibition of PLA2 (aiPLA2) activity of Prdx6 [6]
CCCCCCCCCCCCCCCCOCC(COCC(F)(F)F)OP(=O)(O)OC (stereo not drawn) [MJ33]	able to protect against lung oxidative injury					
LHDFRHQIL (in liposomes) [PIP-2, tested in liposomes]		protected the endothelium from activation; also recorded: significant decrease; also recorded: decreased; also recorded: able to reduce the endothelial activation; also recorded: significantly reverse	prevented the appearance of an endothelial inflammatory phenotype; also recorded: significantly reduced; also recorded: decreased; also recorded: significantly reverse	significantly reduced; also recorded: decreased	significantly reduced; also recorded: decreased	specific for inhibition of aiPLA2 activity
